From patent US8129371B2, “Thienopyrimidine and pyrazolopyrimidine compounds and their use as mTOR kinase and PI3 kinase inhibitors” (Wyeth LLC, priority 2007, dated 2012)
Where two headings read alike, the source gives them in different places.

Legend:
prostate line LNCap = assay: In vitro cell culture growth assay (MTS), LNCap; format: cell-based; details: Homo sapiens, LNCaP, 72 h, LNCap cells, three days after drug treatment
Summary of the method: (§1)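 Growth is reported as percent of vehicle-treated control grown in the same plate, with viability determined by metabolic conversion of MTS dye and absorbance read at 490 nm. Compounds were applied one day after plating and left for three days.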

breast line MDA468 = assay: In vitro cell culture growth assay (MTS), MDA468; format: cell-based; details: Homo sapiens, 72 h, MDA468 cells, three days after drug treatment
Summary of the method: as §1

Human mTOR (FLAG-TOR) = target: T1, Human mTOR (FLAG-TOR) (Homo sapiens, UniProt P42345); assay: Human mTOR kinase assay with purified enzyme, DELFIA format; format: biochemical
T1 construct: FLAG
Summary of the method: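 Purified FLAG-mTOR in HEPES pH 7.4 buffer with 10 mM MnCl2 was preincubated with inhibitor and reacted 2 h at room temperature with His6-S6K substrate, then stopped with EDTA/EGTA. Phospho-T389 S6K detected by DELFIA with Eu-labelled antibody (40 ng/mL) after plate capture; inhibition computed from signal.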

PI3K [1] = target: T2, PI3K (Homo sapiens, UniProt P48736); assay: Fluorescence polarization assay for PI3K; format: biochemical; details: read-out: PI3 Kinase γ IC50
T2 construct: PI3 Kinase γ IC50; other: PI3 Kinase γ; other: PI3 Kinase γ isoform, fluorescence polarization
T2 sequence (P48736 whole entry, canonical isoform): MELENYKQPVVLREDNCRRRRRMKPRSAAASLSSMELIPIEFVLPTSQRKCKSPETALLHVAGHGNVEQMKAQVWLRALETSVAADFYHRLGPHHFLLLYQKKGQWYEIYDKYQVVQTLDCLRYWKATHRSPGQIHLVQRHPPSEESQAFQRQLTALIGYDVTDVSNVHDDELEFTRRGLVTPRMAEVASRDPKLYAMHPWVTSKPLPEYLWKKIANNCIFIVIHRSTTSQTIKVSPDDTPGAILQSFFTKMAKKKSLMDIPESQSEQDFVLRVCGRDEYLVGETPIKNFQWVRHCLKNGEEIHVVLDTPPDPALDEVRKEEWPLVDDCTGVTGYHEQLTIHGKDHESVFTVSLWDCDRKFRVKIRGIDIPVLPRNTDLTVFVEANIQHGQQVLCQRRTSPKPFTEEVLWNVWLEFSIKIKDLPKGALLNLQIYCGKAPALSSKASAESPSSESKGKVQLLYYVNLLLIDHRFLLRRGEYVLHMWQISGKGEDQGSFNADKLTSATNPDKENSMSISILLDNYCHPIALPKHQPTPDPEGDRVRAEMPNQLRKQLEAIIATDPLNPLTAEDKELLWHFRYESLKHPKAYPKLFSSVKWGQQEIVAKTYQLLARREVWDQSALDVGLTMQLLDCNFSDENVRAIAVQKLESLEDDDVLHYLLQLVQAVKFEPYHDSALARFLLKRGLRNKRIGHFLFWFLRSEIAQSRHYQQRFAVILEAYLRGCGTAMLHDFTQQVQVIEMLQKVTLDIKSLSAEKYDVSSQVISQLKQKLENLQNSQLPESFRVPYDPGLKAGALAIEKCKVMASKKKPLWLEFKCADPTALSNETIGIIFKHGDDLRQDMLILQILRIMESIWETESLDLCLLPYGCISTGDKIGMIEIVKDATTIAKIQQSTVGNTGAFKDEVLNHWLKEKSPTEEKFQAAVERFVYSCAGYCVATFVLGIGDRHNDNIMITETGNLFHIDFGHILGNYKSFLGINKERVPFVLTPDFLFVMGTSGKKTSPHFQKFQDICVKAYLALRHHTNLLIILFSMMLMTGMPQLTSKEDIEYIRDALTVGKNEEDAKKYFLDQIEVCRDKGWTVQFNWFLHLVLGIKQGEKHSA
Summary of the method: (§2)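 PI3K was preincubated with compound (final DMSO 1%), and the reaction was started with PIP2/ATP substrate and run 30–60 min. It was stopped with a detector mix giving 10 nM red probe and 70 nM GST-GRP.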

PI3K [2] = target: T3, PI3K (Homo sapiens, UniProt P42336); assay: Fluorescence polarization assay for PI3K; format: biochemical; details: read-out: PI3 Kinase α IC50
T3 construct: PI3 Kinase α IC50; other: PI3 Kinase α; other: PI3 Kinase α isoform, fluorescence polarization
T3 sequence (P42336 whole entry, canonical isoform): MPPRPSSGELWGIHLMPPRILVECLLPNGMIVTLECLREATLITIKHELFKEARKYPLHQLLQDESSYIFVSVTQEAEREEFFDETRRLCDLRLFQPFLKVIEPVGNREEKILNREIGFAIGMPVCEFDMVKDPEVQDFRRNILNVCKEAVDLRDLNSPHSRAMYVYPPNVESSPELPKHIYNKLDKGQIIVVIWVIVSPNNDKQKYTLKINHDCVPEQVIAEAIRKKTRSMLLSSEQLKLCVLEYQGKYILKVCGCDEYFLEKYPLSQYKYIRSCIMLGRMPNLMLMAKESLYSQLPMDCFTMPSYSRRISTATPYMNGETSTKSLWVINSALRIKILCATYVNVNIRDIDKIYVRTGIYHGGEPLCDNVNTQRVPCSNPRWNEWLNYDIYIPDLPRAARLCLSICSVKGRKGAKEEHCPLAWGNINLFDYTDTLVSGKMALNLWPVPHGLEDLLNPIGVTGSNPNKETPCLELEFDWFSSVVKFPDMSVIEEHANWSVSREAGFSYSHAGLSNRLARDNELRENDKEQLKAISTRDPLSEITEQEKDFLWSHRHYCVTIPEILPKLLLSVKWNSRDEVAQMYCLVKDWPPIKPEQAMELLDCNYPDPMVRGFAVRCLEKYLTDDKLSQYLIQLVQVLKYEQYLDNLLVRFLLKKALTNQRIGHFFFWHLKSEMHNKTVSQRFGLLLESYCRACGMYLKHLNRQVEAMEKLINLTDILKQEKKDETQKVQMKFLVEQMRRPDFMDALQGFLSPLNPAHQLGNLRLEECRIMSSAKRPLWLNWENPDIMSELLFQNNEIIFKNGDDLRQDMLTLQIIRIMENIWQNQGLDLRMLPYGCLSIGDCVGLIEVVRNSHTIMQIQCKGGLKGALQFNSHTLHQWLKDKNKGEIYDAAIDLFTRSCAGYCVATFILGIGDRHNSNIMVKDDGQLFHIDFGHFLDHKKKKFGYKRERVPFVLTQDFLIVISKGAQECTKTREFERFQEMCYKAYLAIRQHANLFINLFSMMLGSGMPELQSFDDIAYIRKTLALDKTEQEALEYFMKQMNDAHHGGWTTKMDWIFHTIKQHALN
Summary of the method: as §2

[3] = purified human mTOR enzyme, DELFIA format
[4] = PI3 Kinase γ isoform, fluorescence polarization
[5] = PI3 Kinase α isoform, fluorescence polarization

| Compound | IC50 (prostate line LNCap) [µM] | IC50 (breast line MDA468) [µM] | IC50 (Human mTOR (FLAG-TOR); [3]) [µM] | IC50 (PI3K [1]; [4]) [µM] | IC50 (PI3K [2]; [5]) [µM] | IC50 (Human mTOR (FLAG-TOR)) [µM] | IC50 (PI3K [1]; PI3 Kinase γ) [µM] | IC50 (PI3K [2]; PI3 Kinase α) [µM] |
| --- | --- | --- | --- | --- | --- | --- | --- | --- |
| CCn1nc(C=O)c2c(N3CC4CCC(C3)O4)nc(-c3ccc(NC(=O)NC)cc3)nc21 [Example 352, 1-{4-[1-ethyl-3-formyl-4-(8-oxa-3-azabicyclo[3.2.1]oct-3-yl)-1H-pyrazolo[3,4-d]pyrimidin-6-yl]phenyl}-3-methylurea] | 0.2 | 0.7 | 0.0175 | 6.1 | 1.08 | – | – | – |
| CC(C)n1ncc2c(N3CC4CCC(C3)O4)nc(-c3ccc(NC(=O)OCCO)cc3)nc21 [Example 144, 2-hydroxyethyl {4-[1-isopropyl-4-(8-oxa-3-azabicyclo[3.2.1]oct-3-yl)-1H-pyrazolo[3,4-d]pyrimidin-6-yl]phenyl}carbamate] | 0.023 | 0.27 | – | – | – | 0.00027 | 11 | 0.831 |
| CN(C)c1ccc(NC(=O)Nc2ccc(-c3nc(N4CC5CCC(C4)O5)c4cnn(C)c4n3)cc2)cc1 [Example 233, 1-[4-(dimethylamino)phenyl]-3-{4-[1-methyl-4-(8-oxa-3-azabicyclo[3.2.1]oct-3-yl)-1H-pyrazolo[3,4-d]pyrimidin-6-yl]phenyl}urea] | 0.04 | 0.14 | – | – | – | 0.000865 | > 10 | 0.604 |
| O=C(Nc1ccc(-c2nc(N3CC4CCC(C3)O4)c3cnn([C@H]4CC[C@H](O)CC4)c3n2)cc1)NC1CC1 (relative stereo) [Example 403, 1-cyclopropyl-3-{4-[1-(trans-4-hydroxycyclohexyl)-4-(8-oxa-3-azabicyclo[3.2.1]oct-3-yl)-1H-pyrazolo[3,4-d]pyrimidin-6-yl]phenyl}urea] | 0.005 | 0.18 | 0.0004 | > 10 | 3.63 | – | – | – |
| Cn1ncc2c(N3CC4CCC(C3)O4)nc(-c3ccc(NC(=O)Nc4ccc(S(C)(=O)=O)cc4)cc3)nc21 [Example 239, 1-{4-[1-methyl-4-(8-oxa-3-azabicyclo[3.2.1]oct-3-yl)-1H-pyrazolo[3,4-d]pyrimidin-6-yl]phenyl}-3-[4-(methylsulfonyl)phenyl]urea] | 0.001 | 0.004 | – | – | – | 0.000108 | 0.44 | 0.064 |
| COC(=O)N1CCC(n2ncc3c(N4C5CCC4COC5)nc(-c4ccc(NC(=O)Nc5ccc(OCCN(C)C)cc5)cc4)nc32)CC1 [Example 368, methyl 4-[6-{4-[({4-[2-(dimethylamino)ethoxy]phenyl}carbamoyl)amino]phenyl}-4-(3-oxa-8-azabicyclo[3.2.1]oct-8-yl)-1H-pyrazolo[3,4-d]pyrimidin-1-yl]piperidine-1-carboxylate] | 0.001 | 0.004 | 0.000885 | 2 | 1.16 | – | – | – |
| CNC(=O)Nc1ccc(-c2nc(N3CC4CCC(C3)O4)c3cnn([C@H]4CC[C@@H](OC)CC4)c3n2)cc1 (relative stereo) [Example 387, 1-{4-[1-(cis-4-methoxycyclohexyl)-4-(8-oxa-3-azabicyclo[3.2.1]oct-3-yl)-1H-pyrazolo[3,4-d]pyrimidin-6-yl]phenyl}-3-methylurea] | 0.001 | 0.019 | 0.00033 | 0.404 | 0.705 | – | – | – |
| CN(C)CCn1ncc2c(N3CC4CCC(C3)O4)nc(-c3ccc(NC(=O)OCCO)cc3)nc21 [Example 158, 2-hydroxyethyl (4-{1-[2-(dimethylamino)ethyl]-4-(8-oxa-3-azabicyclo[3.2.1]oct-3-yl)-1H-pyrazolo[3,4-d]pyrimidin-6-yl}phenyl)carbamate] | 0.68 | 5 | – | – | – | 0.027 | > 10 | 3.52 |
| C=Cc1nn(CC)c2nc(-c3ccc(NC(=O)NC)cc3)nc(N3CC4CCC(C3)O4)c12 [Example 350, 1-{4-[1-ethyl-4-(8-oxa-3-azabicyclo[3.2.1]oct-3-yl)-3-vinyl-1H-pyrazolo[3,4-d]pyrimidin-6-yl]phenyl}-3-methylurea] | 0.13 | 0.48 | 0.00195 | 6.58 | 0.565 | – | – | – |
| CCn1nc(CN2CCN(C)CC2)c2c(N3CC4CCC(C3)O4)nc(-c3ccc(NC(=O)NC)cc3)nc21 [Example 353, 1-(4-{1-ethyl-3-[(4-methylpiperazin-1-yl)methyl]-4-(8-oxa-3-azabicyclo[3.2.1]oct-3-yl)-1H-pyrazolo[3,4-d]pyrimidin-6-yl}phenyl)-3-methylurea] | 0.7 | 1.2 | 0.015 | > 10 | 1.56 | – | – | – |
| COC(=O)N1CCC(n2ncc3c(N4CC5CCC(C4)O5)nc(-c4ccc(NC(=O)Nc5ccncc5)cc4)nc32)CC1 [Example 14, methyl 4-[4-(8-oxa-3-azabicyclo[3.2.1]oct-3-yl)-6-{4-[(pyridin-4-ylcarbamoyl)amino]phenyl}-1H-pyrazolo[3,4-d]pyrimidin-1-yl]piperidine-1-carboxylate] | 0.0009 | 0.019 | – | – | – | 0.00016 | 2.05 | 0.487 |
| COC(=O)N1CCC(n2ncc3c(N4CC5CCC(C4)O5)nc(-c4ccc(NC(=O)Nc5ccc(N6CCN(C)CC6)cc5)cc4)nc32)CC1 [Example 166, methyl 4-{6-[4-({[4-(4-methylpiperazin-1-yl)phenyl]carbamoyl}amino)phenyl]-4-(8-oxa-3-azabicyclo[3.2.1]oct-3-yl)-1H-pyrazolo[3,4-d]pyrimidin-1-yl}piperidine-1-carboxylate] | < 0.001 | 0.002 | – | – | – | 0.00048 | 0.867 | 0.117 |
| CCOC(=O)N1CCC(n2ncc3c(N4CC5CCC(C4)O5)nc(-c4ccc(NC(=O)NC5CCN(C(=O)OC(C)(C)C)CC5)cc4)nc32)CC1 [Example 37, ethyl 4-{6-[4-({[1-(tert-butoxycarbonyl)piperidin-4-yl]carbamoyl}amino)phenyl]-4-(8-oxa-3-azabicyclo[3.2.1]oct-3-yl)-1H-pyrazolo[3,4-d]pyrimidin-1-yl}piperidine-1-carboxylate] | 1 | > 60 | – | – | – | 0.037 | 7.39 | 8.62 |
| CCn1ncc2c(N3CC4CCC(C3)O4)nc(-c3ccc(NC(=O)NC)cc3)nc21 [Example 40, 1-{4-[1-ethyl-4-(8-oxa-3-azabicyclo[3.2.1]oct-3-yl)-1H-pyrazolo[3,4-d]pyrimidin-6-yl]phenyl}-3-methylurea] | 0.07 | 0.3 | – | – | – | 0.00058 | > 10 | 0.27 |
| O=C(Nc1ccc(-c2nc(N3C[C@@H]4C[C@H]3CO4)c3cnn(CC(F)(F)F)c3n2)cc1)Nc1ccc(N2CCOCC2)nc1 [Example 299, 1-(6-morpholin-4-ylpyridin-3-yl)-3-(4-{4-[(1S,4S)-2-oxa-5-azabicyclo[2.2.1]hept-5-yl]-1-(2,2,2-trifluoroethyl)-1H-pyrazolo[3,4-d]pyrimidin-6-yl}phenyl)urea] | 0.01 | 0.042 | 0.00285 | > 10 | 10.2 | – | – | – |
| CNC(=O)Nc1ccc(-c2nc(N3CC4CCC(C3)O4)c3cnn(C4CCC(O)CC4)c3n2)cc1 (centres unmarked) [Example 107, 1-(4-(4-(8-oxa-3-azabicyclo[3.2.1]octan-3-yl)-1-(4-hydroxycyclohexyl)-1H-pyrazolo[3,4-d]pyrimidin-6-yl)phenyl)-3-methylurea] | 0.048 | 0.19 | – | – | – | 0.00024 | 5 | 1.31 |
